# Data from PubChem BioAssay (NCI).
#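 The compound was tested at five concentrations on cells cultured in 96-well plates, with a 48-hour exposure period. GI50 is the concentration that inhibits growth by half. TGI is the concentration that stops growth completely.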
# Key:
# Assay in all cases: growth of human tumour cells (NCI), 48 h
# SK-MEL-28 melanoma = test system: SK-MEL-28 melanoma
# M14 melanoma = test system: M14 melanoma
# SR leukemia = test system: SR leukemia
# A498 renal = test system: A498 renal
# UACC-62 melanoma = test system: UACC-62 melanoma
# ACHN renal = test system: ACHN renal
# SK-MEL-5 melanoma = test system: SK-MEL-5 melanoma
# LOX IMVI melanoma = test system: LOX IMVI melanoma
# OVCAR-4 ovarian = test system: OVCAR-4 ovarian
# PC-3 prostate = test system: PC-3 prostate
smiles,measurement,setting,value
CN1CC[C@]2(C)c3ccc(O)cc3CC3CCCC1C32C (some centres undefined),TGI,SK-MEL-28 melanoma,> 100 µM
same,TGI,M14 melanoma,> 100 µM
same,TGI,SR leukemia,> 100 µM
same,TGI,A498 renal,> 100 µM
same,TGI,UACC-62 melanoma,> 100 µM
same,TGI,ACHN renal,> 100 µM
same,TGI,SK-MEL-5 melanoma,> 100 µM
same,TGI,LOX IMVI melanoma,> 100 µM
COC1C2C=CC(C2)[C@H]1[N+](=O)[O-] (some centres undefined),TGI,M14 melanoma,> 100 µM
same,TGI,SR leukemia,> 100 µM
same,TGI,A498 renal,> 100 µM
same,TGI,UACC-62 melanoma,> 100 µM
same,TGI,OVCAR-4 ovarian,> 100 µM
same,TGI,ACHN renal,> 100 µM
same,TGI,SK-MEL-5 melanoma,> 100 µM
same,TGI,LOX IMVI melanoma,> 100 µM
CC(=O)OCC(OC(C)=O)C(OC(C)=O)C(OC(C)=O)C(=O)CNn1c(-c2ccccc2Cl)nc2ccccc2c1=O (centres undefined),TGI,SK-MEL-28 melanoma,> 100 µM
same,TGI,M14 melanoma,> 100 µM
same,TGI,SR leukemia,> 100 µM
same,TGI,A498 renal,> 100 µM
same,TGI,UACC-62 melanoma,> 100 µM
same,TGI,OVCAR-4 ovarian,> 100 µM
same,TGI,ACHN renal,> 100 µM
same,TGI,SK-MEL-5 melanoma,> 100 µM
same,TGI,LOX IMVI melanoma,> 100 µM
CCN(CC)C(=S)SC,TGI,SK-MEL-28 melanoma,> 100 µM
same,TGI,M14 melanoma,> 100 µM
same,TGI,A498 renal,> 100 µM
same,TGI,UACC-62 melanoma,> 100 µM
same,TGI,PC-3 prostate,> 100 µM
same,TGI,ACHN renal,> 100 µM
same,TGI,SK-MEL-5 melanoma,> 100 µM
same,TGI,LOX IMVI melanoma,> 100 µM
COC(=O)C(CC(=O)Nc1ccc(C)cc1)C(=O)C(=O)Nc1ccccc1C(C)C (centres undefined),TGI,SK-MEL-28 melanoma,> 100 µM
same,TGI,M14 melanoma,> 100 µM
same,TGI,SR leukemia,> 100 µM
same,TGI,A498 renal,> 100 µM
same,TGI,UACC-62 melanoma,> 100 µM
same,TGI,OVCAR-4 ovarian,> 100 µM
same,TGI,ACHN renal,> 100 µM
same,TGI,SK-MEL-5 melanoma,> 100 µM
same,TGI,LOX IMVI melanoma,> 100 µM
COC(=O)C1=C(C(=O)OC)SC(=CC#CC=C2SC(C(=O)OC)=C(C(=O)OC)S2)S1,TGI,SK-MEL-28 melanoma,> 63.2 µM
same,TGI,M14 melanoma,> 76.2 µM
same,TGI,SR leukemia,> 100 µM
same,TGI,A498 renal,34.7 µM
same,TGI,UACC-62 melanoma,29.1 µM
same,TGI,OVCAR-4 ovarian,35.3 µM
same,TGI,ACHN renal,34.6 µM
same,TGI,SK-MEL-5 melanoma,> 86.5 µM
same,TGI,LOX IMVI melanoma,44.2 µM
CC1C(=O)OCC2=CCN3CCC(OC(=O)C(C)C1(C)O)C23 (centres undefined),TGI,SK-MEL-28 melanoma,> 100 µM
same,TGI,M14 melanoma,> 100 µM
same,TGI,A498 renal,> 100 µM
same,TGI,UACC-62 melanoma,> 100 µM
same,TGI,PC-3 prostate,> 100 µM
same,TGI,OVCAR-4 ovarian,> 100 µM
same,TGI,ACHN renal,> 100 µM
same,TGI,SK-MEL-5 melanoma,> 100 µM
same,TGI,LOX IMVI melanoma,> 100 µM
COc1ccc(/C=C\c2cc(OC)c(O[Si](C)(C)C(C)(C)C)c(OC)c2)cc1,TGI,SK-MEL-28 melanoma,43.4 µM
same,TGI,M14 melanoma,> 100 µM
same,TGI,SR leukemia,56.2 µM
same,TGI,A498 renal,81.1 µM
same,TGI,UACC-62 melanoma,> 100 µM
same,TGI,OVCAR-4 ovarian,> 100 µM
same,TGI,ACHN renal,> 100 µM
CC[O-].CC[O-].O=S(=O)([O-])c1ccc([O-])c2ncccc12.O=S(=O)([O-])c1ccc([O-])c2ncccc12.[Ti+4],GI50,SK-MEL-28 melanoma,> 100 µM
same,TGI,SK-MEL-28 melanoma,> 100 µM
same,GI50,M14 melanoma,63.8 µM
same,TGI,M14 melanoma,> 100 µM
same,GI50,A498 renal,> 100 µM
same,TGI,A498 renal,> 100 µM
same,GI50,UACC-62 melanoma,66.2 µM
same,TGI,UACC-62 melanoma,> 100 µM
same,GI50,OVCAR-4 ovarian,52.9 µM
same,TGI,OVCAR-4 ovarian,> 100 µM
same,GI50,ACHN renal,59.1 µM
same,TGI,ACHN renal,> 100 µM
same,GI50,SK-MEL-5 melanoma,> 100 µM
same,TGI,SK-MEL-5 melanoma,> 100 µM
same,GI50,LOX IMVI melanoma,28.3 µM
same,TGI,LOX IMVI melanoma,> 100 µM
CCOC(=O)c1s/c(=N\Nc2nc3ccccc3cc2C2OCCO2)n(Cc2ccccc2)c1C,TGI,SK-MEL-28 melanoma,> 100 µM
same,TGI,M14 melanoma,> 100 µM
same,TGI,SR leukemia,> 100 µM
same,TGI,A498 renal,> 100 µM
same,TGI,UACC-62 melanoma,> 100 µM
same,TGI,OVCAR-4 ovarian,> 100 µM
same,TGI,ACHN renal,> 100 µM
same,TGI,SK-MEL-5 melanoma,> 100 µM
same,TGI,LOX IMVI melanoma,> 100 µM
Cc1cc(C)c(C(=O)c2no[n+]([O-])c2C(=O)c2c(C)cc(C)c(Br)c2C)c(C)c1Br,TGI,SK-MEL-28 melanoma,27.5 µM
same,TGI,M14 melanoma,25.1 µM
same,TGI,SR leukemia,8.42 µM
same,TGI,A498 renal,32.6 µM
same,TGI,UACC-62 melanoma,23.7 µM
same,TGI,OVCAR-4 ovarian,50 µM
same,TGI,ACHN renal,34.9 µM
